The values below come from US12275731B2, “Azaindole inhibitors of wild-type and mutant forms of LRRK2” (DANA-FARBER CANCER INSTITUTE, INC., priority 2018, dated 2025).

What all share (experiment): KinomeScan profiling
What all share (type): binding

One assay concerns the target T1, PIM3 (Homo sapiens, UniProt Q86V86).
T1 construct: purchased KinomeScan® (panel service)
To be noted: PIM3, 1 μM; read-out: % control. In outline:
(§1)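 Luminescence (RLU) was converted to percent of control, with DMSO set as 100% and a reference compound as 0%. Test compounds were run at 1 μM against 468 kinases. Kinases showing below 35% of control were scored as bound.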

A further assay has as its target T2, ERK8 (Homo sapiens, UniProt Q8TD08).
T2 sequence (Q8TD08 1-544): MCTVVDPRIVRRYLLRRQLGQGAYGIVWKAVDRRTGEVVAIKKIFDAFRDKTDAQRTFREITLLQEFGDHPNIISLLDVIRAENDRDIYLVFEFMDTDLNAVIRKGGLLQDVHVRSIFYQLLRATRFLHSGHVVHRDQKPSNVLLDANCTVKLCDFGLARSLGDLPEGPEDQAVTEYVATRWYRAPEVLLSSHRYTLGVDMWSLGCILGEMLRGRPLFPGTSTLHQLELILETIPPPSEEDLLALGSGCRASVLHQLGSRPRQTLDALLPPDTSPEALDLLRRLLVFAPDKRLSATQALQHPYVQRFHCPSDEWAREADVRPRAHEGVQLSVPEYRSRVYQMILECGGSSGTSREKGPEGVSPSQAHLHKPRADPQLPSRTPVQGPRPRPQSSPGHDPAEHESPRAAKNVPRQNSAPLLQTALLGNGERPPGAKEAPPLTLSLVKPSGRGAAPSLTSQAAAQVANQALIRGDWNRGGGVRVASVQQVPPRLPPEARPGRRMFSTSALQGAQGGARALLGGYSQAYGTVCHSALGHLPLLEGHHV
To be noted: ERK8, 1 μM; read-out: % control. The method, boiled down:
as §1

The target of another assay is CDK2 (Homo sapiens, UniProt P24941). To be noted: CDK2, 1 μM; read-out: % control. The method, boiled down: as §1
In a further assay the target is T3, EPHA6 (Homo sapiens, UniProt Q9UF33).
T3 sequence (Q9UF33 23-1036): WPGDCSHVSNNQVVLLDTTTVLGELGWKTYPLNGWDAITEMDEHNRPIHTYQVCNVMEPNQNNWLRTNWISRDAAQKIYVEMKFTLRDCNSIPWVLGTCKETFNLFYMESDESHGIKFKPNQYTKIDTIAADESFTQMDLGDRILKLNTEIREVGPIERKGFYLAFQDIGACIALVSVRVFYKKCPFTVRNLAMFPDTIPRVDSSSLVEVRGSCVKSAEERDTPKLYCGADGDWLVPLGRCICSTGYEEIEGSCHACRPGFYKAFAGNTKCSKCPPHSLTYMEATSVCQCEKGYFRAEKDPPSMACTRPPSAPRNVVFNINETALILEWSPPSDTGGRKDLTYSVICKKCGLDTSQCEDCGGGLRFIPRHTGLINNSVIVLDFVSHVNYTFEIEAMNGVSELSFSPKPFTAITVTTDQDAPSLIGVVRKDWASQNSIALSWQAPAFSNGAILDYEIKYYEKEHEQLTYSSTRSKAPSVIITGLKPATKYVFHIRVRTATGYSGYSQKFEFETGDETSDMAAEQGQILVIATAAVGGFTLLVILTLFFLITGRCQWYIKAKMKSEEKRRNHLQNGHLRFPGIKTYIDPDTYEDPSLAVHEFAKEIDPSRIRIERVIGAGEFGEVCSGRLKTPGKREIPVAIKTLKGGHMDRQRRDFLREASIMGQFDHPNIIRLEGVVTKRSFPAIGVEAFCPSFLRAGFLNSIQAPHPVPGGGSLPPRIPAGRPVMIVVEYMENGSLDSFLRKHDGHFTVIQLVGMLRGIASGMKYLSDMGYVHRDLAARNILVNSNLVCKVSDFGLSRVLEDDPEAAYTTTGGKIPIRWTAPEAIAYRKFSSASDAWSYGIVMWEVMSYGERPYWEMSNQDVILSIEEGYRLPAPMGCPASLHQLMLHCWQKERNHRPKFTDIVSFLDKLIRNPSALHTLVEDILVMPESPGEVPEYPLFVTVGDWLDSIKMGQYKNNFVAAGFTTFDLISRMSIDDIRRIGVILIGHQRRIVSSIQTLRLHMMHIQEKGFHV
To be noted: EPHA6, 1 μM; read-out: % control. The method, boiled down: as §1

A further assay deals with VRK2 (Homo sapiens, UniProt Q86Y07). To be noted: VRK2, 1 μM; read-out: % control. The method, boiled down:
as §1

The target in another assay is VEGFR2 (Homo sapiens, UniProt P35968). To be noted: VEGFR2, 1 μM; read-out: % control. In outline:
as §1

Another assay deals with T4, BMPR1B (Homo sapiens, UniProt O00238).
T4 construct: purchased KinomeScan®
T4 sequence (O00238 14-502): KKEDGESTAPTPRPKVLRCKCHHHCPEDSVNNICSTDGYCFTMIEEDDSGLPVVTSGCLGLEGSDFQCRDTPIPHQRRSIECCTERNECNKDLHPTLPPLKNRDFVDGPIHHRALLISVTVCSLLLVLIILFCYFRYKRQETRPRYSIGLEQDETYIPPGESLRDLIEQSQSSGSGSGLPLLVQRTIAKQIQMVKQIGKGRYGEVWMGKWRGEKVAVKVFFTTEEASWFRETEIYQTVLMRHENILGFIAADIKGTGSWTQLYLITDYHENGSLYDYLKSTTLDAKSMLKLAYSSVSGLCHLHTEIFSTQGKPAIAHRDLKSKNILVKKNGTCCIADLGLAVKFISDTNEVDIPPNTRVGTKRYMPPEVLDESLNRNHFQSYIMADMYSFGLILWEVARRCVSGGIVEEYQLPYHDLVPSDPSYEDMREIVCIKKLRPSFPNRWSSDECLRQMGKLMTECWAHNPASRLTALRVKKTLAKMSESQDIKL
The note with it: read-out: % control. The method, boiled down: as §1

VEGFR2, sequence (P35968 20-1356): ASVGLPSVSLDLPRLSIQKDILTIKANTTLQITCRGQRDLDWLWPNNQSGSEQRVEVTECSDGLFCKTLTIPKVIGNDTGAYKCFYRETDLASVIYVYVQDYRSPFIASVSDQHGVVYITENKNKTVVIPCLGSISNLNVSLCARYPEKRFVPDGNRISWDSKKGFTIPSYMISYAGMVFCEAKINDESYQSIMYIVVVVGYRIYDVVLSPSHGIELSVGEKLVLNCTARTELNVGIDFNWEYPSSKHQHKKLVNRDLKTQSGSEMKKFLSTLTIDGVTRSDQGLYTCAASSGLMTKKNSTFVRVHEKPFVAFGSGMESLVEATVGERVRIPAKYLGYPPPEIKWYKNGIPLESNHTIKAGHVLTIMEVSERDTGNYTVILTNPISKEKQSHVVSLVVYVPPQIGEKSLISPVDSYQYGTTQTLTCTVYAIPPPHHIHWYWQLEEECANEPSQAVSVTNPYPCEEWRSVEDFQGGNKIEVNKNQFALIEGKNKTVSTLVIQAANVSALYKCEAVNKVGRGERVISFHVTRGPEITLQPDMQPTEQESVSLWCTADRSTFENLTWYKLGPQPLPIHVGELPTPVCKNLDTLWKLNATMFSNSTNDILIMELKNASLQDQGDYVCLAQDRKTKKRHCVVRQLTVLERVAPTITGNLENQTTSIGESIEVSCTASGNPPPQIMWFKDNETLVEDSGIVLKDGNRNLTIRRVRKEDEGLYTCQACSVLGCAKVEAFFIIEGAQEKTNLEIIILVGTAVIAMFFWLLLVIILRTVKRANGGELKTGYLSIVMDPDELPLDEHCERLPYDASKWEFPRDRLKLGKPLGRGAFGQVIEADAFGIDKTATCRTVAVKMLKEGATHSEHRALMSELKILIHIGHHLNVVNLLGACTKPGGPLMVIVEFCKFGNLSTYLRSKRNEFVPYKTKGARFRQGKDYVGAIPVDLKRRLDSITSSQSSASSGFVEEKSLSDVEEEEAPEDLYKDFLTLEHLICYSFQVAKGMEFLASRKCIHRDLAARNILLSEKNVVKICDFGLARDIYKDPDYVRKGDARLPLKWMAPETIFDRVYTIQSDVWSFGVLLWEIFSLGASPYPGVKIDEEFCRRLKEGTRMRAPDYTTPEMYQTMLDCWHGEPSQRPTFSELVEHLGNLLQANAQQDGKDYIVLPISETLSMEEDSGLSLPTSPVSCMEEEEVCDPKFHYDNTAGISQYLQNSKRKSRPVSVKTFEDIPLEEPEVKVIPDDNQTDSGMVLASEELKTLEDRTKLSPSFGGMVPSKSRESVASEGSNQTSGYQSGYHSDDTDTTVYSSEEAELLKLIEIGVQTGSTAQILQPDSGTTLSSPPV
VRK2, sequence (Q86Y07 whole entry): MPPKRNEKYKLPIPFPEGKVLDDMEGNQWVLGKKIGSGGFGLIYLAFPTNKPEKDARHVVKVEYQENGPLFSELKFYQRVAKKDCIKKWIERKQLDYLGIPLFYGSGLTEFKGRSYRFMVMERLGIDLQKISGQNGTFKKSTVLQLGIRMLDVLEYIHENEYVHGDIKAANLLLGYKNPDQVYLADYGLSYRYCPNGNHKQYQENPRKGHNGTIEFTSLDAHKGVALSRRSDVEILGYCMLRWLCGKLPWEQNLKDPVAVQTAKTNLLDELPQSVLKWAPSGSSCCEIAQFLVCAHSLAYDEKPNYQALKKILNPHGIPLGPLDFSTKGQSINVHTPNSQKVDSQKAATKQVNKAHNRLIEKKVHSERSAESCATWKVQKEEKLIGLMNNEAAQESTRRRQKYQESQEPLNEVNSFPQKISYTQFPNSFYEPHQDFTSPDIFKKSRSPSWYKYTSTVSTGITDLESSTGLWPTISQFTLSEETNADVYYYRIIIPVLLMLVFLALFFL

`CNc1c(-c2ccc(C(=O)N3CCC(N4CCOCC4)CC3)cc2)cnc2[nH]cc(Cl)c12` [Compound 96, (4-(3-chloro-4-(methylamino)-1H-pyrrolo[2,3-b]pyridin-5-yl)phenyl)(4-morpholinopiperidin-1-yl)methanone]: the remaining binding at 1 µM on PIM3 came to 100%; on ERK8, 100%; at CDK2, 100%; at EPHA6, 98%; on VRK2 it was 79%; on VEGFR2, 4.2%. Besides, the remaining binding at 1 µM on BMPR1B came to 54%.

On to `O=C(c1ccc(-c2cnc3[nH]cc(Cl)c3c2NC2CCCC2)cc1)N1CCC(N2CCOCC2)CC1` [Compound 101, (4-(3-chloro-4-(cyclopentylamino)-1H-pyrrolo[2,3-b]pyridin-5-yl)phenyl)(4-morpholinopiperidin-1-yl)methanone], for which the remaining binding at 1 µM on PIM3 came out at 96%; at ERK8, 91%; on CDK2 it was 100%; on EPHA6 it was 43%; at VRK2 it was 100%; on VEGFR2, 33%. For the same molecule, the remaining binding at 1 µM at BMPR1B was found to be 95%.

`CNc1c(-c2cnn([C@H]3CCN(C(C)=O)C[C@@H]3F)c2)cnc2[nH]cc(Cl)c12` [Compound 77, 1-((3S,4S)-4-(4-(3-chloro-4-(methylamino)-1H-pyrrolo[2,3-b]pyridin-5-yl)-1H-pyrazol-1-yl)-3-fluoropiperidin-1-yl)ethan-1-one]: the remaining binding at 1 µM on PIM3 was determined as 99%; at ERK8, 92%; on CDK2, 100%; on EPHA6, 93%; on VRK2 it was 66%; at VEGFR2, 2.8%. Moreover, the remaining binding at 1 µM at BMPR1B was determined as 47%.
